Assay results taken from patent US5834506A, “Dihydropyrones with improved antiviral activity” (Warner-Lambert Company, priority 1997, dated 1998).
pEC50, pIC50: −log10 of the molar value.

Key:
[1] = molecular target: T1, HIV-1 protease (Human immunodeficiency virus type 1 group M subtype B, UniProt P04585); experiment: biochemical; details: 6.0 nM HIV-1 protease, 40 μM substrate III, 37° C., 5 minutes; read-out: Inhib of HIV-Protease IC50
T1 construct: Recombinant HIV-1 protease (>96% purity); purchased Bachem Bioscience Inc. (King of Prussia, PA)
Description: The testing of specific 5,6-dihydropyrones as inhibitors of the HIV aspartyl protease, based on the study of the hydrolysis of an undecapeptide enzyme substrate, and the testing of the 5,6-dihydropyrones as inhibitors of viral growth and infectivity, based on the study of infection of H9 cell lines by the HIV-1iiib strain, are also disclosed. […] The methods employed follow the procedures of Tummino, et al. (Archives of Biochemistry and Biophysics 1995, 316, 523).
(§1) The compounds of the present invention were evaluated for their in vitro inhibition of HIV-1 protease and for their antiviral efficacy in HIV infected lymphocytes.
Recombinant HIV-1 protease (>96% purity) and HIV protease substrate III (the undecapeptide H-His-Lys-Ala-Arg-Val-Leu-Nph-Glu-Ala-Nle-Ser-NH2,>97% purity) were purchased from Bachem Bioscience Inc. (King of Prussia, PA).
The methods employed follow the procedures of Tummino, et al. (Archives of Biochemistry and Biophysics 1995, 316, 523). […] (total volume, 100 μl). […] The final inhibitor concentrations used were 0 (0.1, 0.2, in some experiments), 0.5, 1, 2, 5, 10, 20, 50, and 100 μM. The solution was mixed, incubated for 5 minutes and the reaction quenched by addition of trifluoracetic acid, 2% final. The (leu-p-nitro-phe) bond of the substrate is cleaved by the enzyme and substrate and products separated by reverse-phase HPLC. Absorbance was measured at 220 nm, peak areas determined, and percentage conversion to product used to calculate percentage control (=[% conversion (+inhibitor)/% conversion (-inhibitor)]×100).

[2] = tested on: HIV in lymphocyte derived CEM cells; experiment: Cellular Infection Assay, antiviral efficacy in HIV infected CEM cells (XTT cytopathic procedure); type: cell-based; details: Human immunodeficiency virus 1, CCRF-CEM, CEM cells; for EC95: protecting the cells 95% relative to untreated control; for pEC50: reduces HIV cytopathic effects 50% relative to untreated control, read-out: Antiviral Efficacy EC50
Method: as §1
(§2) Compounds were tested in lymphocyte derived CEM cells using the XTT cytopathic procedures and were performed at Southern Research Institute (Buckheit, et. al. Antiviral Res. 1993, 21, 247; see also Weislow, et al. J Nat. Cancer Inst., 1989, 81, 577). Compound concentrations were 0.32, 1, 3.2, 10, 32 and 100 uM. The EC50 represents the concentration of agent which reduces HIV cytopathic effects 50% relative to untreated control. EC95 represents the concentration of agent protecting the cells 95% relative to untreated control. Cellular toxicity of the agents are estimated from the TC50 which represents the concentration of the agent which inhibits 50% of the viability of uninfected cells.

[3] = Cellular toxicity in uninfected CEM cells (TC50); type: cell-based; details: human, inhibits 50% of the viability of uninfected cells
Method: as §2

SMILES: Cc1cc(SC2=C(O)CC(CCc3ccc(O)cc3)(C(C)C)OC2=O)c(C(C)(C)C)cc1NC(=S)N1CCNCC1 (centres unmarked) [Example 83]
- pIC50 [1]: 7.39
- EC95 [2]: 92 µM
- pEC50 [2]: 4.37
- CC50 [3]: > 100 µM

SMILES: Cc1cc(SC2=C(O)CC(CCc3ccc(N)cc3)(C(C)C)OC2=O)c(C(C)(C)C)cc1OS(=O)(=O)c1ccc(C#N)cc1 (centres unmarked) [Example 86]
- pIC50 [1]: 8.89
- EC95 [2]: 3.7 µM
- pEC50 [2]: 6.40
- CC50 [3]: 53 µM

SMILES: CCNS(=O)(=O)Oc1cc(C(C)(C)C)c(SC2=C(O)CC(CCc3ccc(O)cc3)(C3CCN(C(C)=O)CC3)OC2=O)cc1C (centres unmarked) [Example 89]
- pIC50 [1]: 7.92
- EC95 [2]: 89 µM
- pEC50 [2]: 4.49
- CC50 [3]: > 100 µM

SMILES: Cc1cc(SC2=C(O)CC(CCc3ccc(O)cc3)(C(C)C)OC2=O)c(C(C)(C)C)cc1N(C)C (centres unmarked) [Example 93]
- pIC50 [1]: 7.96
- EC95 [2]: 10 µM
- pEC50 [2]: 5.72
- CC50 [3]: 68 µM

SMILES: Cc1cc(SC2=C(O)CC(CCc3ccc(O)cc3)(C3CCC3)OC2=O)c(C(C)(C)C)cc1CO (centres unmarked) [Example 98]
- pIC50 [1]: 8.66
- EC95 [2]: 1.9 µM
- pEC50 [2]: 6.10
- CC50 [3]: > 100 µM

SMILES: Cc1ccc(C(C)(C)C)c(SC2=C(O)CC(CCc3ccccc3)(CCc3ccccc3)OC2=O)c1 [Ref A, 3-(2-tert-Butyl-5-methyl-phenylsulfanyl)-4-hydroxy-6,6-diphenethyl-5,6-dihydro-pyran-2-one, reference compound]
- pIC50 [1]: 6.82
- pEC50 [2]: < 4.64
- CC50 [3]: 23 µM

SMILES: Cc1ccc(C(C)(C)C)c(SC2=C(O)CC(CCc3ccccc3)(CCC(C)C)OC2=O)c1 (centres unmarked) [Ref C, 3-(2-tert-Butyl-5-methyl-phenylsulfanyl)-4-hydroxy-6-(3-methyl-butyl)-6-phenethyl-5,6-dihydro-pyran-2-one, reference compound]
- pIC50 [1]: 7.15
- pEC50 [2]: < 4.55
- CC50 [3]: 28 µM
